Measured values: US20220233469A1, “METHODS, COMPOSITIONS AND DEVICES FOR TREATING NEUROINFLAMMATORY CONDITIONS” (ALYRA BIOTECH PTY LTD, priority 2019, published 2022)
Entries after “also recorded” stand apart in the source; their conditions may differ.

Experiments:
[1] = test system: HEK293/Null1; test: TLR-/NLR- control cell line HEK293/Null1 stimulated with TNFa; assay type: cell-based, human; conditions: stimulated with TNFa at 10 ng/mL
Experimental: (§1) Toll-Like Receptor (TLR), NOD-Like Receptor (NLR) and C-Type Lectin Receptor (CLR) stimulation were tested by assessing NF-κB activation in HEK293 cells expressing a given TLR, NLR or CLR. The activity of the test articles was tested at one concentration and compared to control ligands. These steps were performed in triplicate. In a 96-well plate (200 μL total volume) containing the appropriate cells (50,000-75,000 cells/well), 20 μL of the test article or the positive control ligand was added to the wells. For the antagonist assay, the test article was incubated with the cells, at 37° C. with 5% CO2, for 30 minutes prior to the addition of the positive control ligand to the wells. The media added to the wells was designed for the detection of NF-κB induced SEAP expression. After a 16-24 hr incubation the optical density (OD) was read at 650 nm on a Molecular Devices SpectraMax 340PC absorbance detector.

[2] = test system: dorsal horn microglia; test: Activation of dorsal horn microglia (Iba1 immunofluorescence) after intrauterine LPS in mice; assay type: in vivo, mouse; conditions: for LPS-induced activation of spinal microglia (Iba1 staining, dorsal horn): intrauterine, given with LPS (100 ug/kg) once per estrus cycle over three cycles, Amitriptyline 28 ug/kg, TAK-242 36 ug/kg
Text: (§2) We first recognised that neuroinflammatory conditions of the nervous system may be, at least in part, due to activation of the innate immune system within the uterus resulting in activation of glial cells in the dorsal horn of the spinal cord. To model this in mice, a study was undertaken administering LPS (lipopolysaccharide), a potent immune activator, to the uterus of mice once per estrus cycle over three cycles.
(§3) Studies were also undertaken to investigate whether a small dose of amitriptyline, an inhibitor of the pattern recognition receptors TLR, NOD, CLR, RIG-1 and MDA-5, administered with LPS within the uterus could prevent LPS-induced activation of spinal glial cells. To confirm that the amitriptyline was acting, at least in part, by blocking TLRs, an investigation was also conducted on mice given a small dose of pure TLR4 blocker-TAK-242—with LPS.
(§4) The Nonsurgical Embryo Transfer Device (Paratech, USA) was used to allow insertion of fluid into the uterus with brief, mild discomfort to the mouse, and no need for anaesthesia. Following three estrus cycles, glial activation in the dorsal horn of the spinal cord was measured using immunofluorescence. Activation of dorsal horn astrocytes was assessed using GFAP. Activation of dorsal horn microglia was assessed using Iba1. We compared the activation of spinal glia in mice with intrauterine administration of saline only, saline and LPS (100 ug/kg), saline LPS (100 ug/kg) and Amitriptyline (28 ug/kg), and saline LPS (100 ug/kg) and TAK-242 (36 ug/kg).
(§5) The spinal cord was assessed using immunohistochemistry techniques across levels T10, T11, T12, T13, L1, L2, L3, L4, L5, L6, S1 and S2 where T represents the thoracic segment of the spinal cord, L represents the lumbar segment of the spinal cord and S represents the sacral segment of the spinal cord. The regions of interest in the dorsal horn include Laminae I, II, III and IV. Changes in spinal glial reactivity are causally linked to all known models of neuroinflammatory medical conditions.

[3] = test system: HEK293/Null2; test: TLR-/NLR- control cell line HEK293/Null2 stimulated with TNFa; assay type: cell-based, human; conditions: stimulated with TNFa at 10 ng/mL
Experimental: as §1

[4] = test system: dorsal horn astrocytes; test: Activation of dorsal horn astrocytes (GFAP immunofluorescence) after intrauterine LPS in mice; assay type: in vivo, mouse; conditions: for LPS-induced activation of spinal astrocytes (GFAP staining, dorsal horn): intrauterine, given with LPS (100 ug/kg) once per estrus cycle over three cycles, Amitriptyline 28 ug/kg, TAK-242 36 ug/kg; for integrated density of GFAP staining (activated astrocytes within the dorsal horn): level of T12, intrauterine LPS with Amitriptyline or TAK-242 vs LPS, p=0.0002
Text: as §2, §3, §4, §5

[5] = test system: spinal glial cells; test: Spinal glial activation after intrauterine LPS in mice; assay type: in vivo, mouse; conditions: for LPS-induced spinal glial activation: intrauterine co-administration with LPS (100 ug/kg), Amitriptyline 28 ug/kg, TAK-242 36 ug/kg
Text: as §2, §3, §4, §5

[6] = used orally in clinical practice; cited from earlier work
[7] = Facial Grimace Score after intrauterine LPS in mice; assay type: in vivo, mouse; conditions: for Facial Grimace Score: mice, 24 hours following the final LPS stimulation
[8] = test system: HEK293/Null; test: RIG-I-/MDA-5- control cell line HEK293/Null stimulated with hIFNα; assay type: cell-based, human; conditions: stimulated with recombinant hIFNα at 100 IU/mL
Experimental: RIG-I and MDA-5 stimulation were tested by assessing IRF3 activation in HEK293 cells expressing human RIG-I or MDA-5 genes. The activity of the test articles was tested on human RIG-I and MDA-5 expressing cells as a potential agonist or antagonist. The test articles were evaluated at one concentration and compared to control ligands. This step was performed in triplicate. The results are provided as Relative Luminescence Units (RLUs).
RIG-I^−/MDA-5^− Cell Lines: HEK293/Null: Control for human RIG-I and MDA-5 Poly(I:C)HMW/LyoVec at 1 μg/mL. Antagonist: 500 ng/mL 5′ppp-dsRNA/LyoVec at 1 μg/mL. Antagonist: 500 ng/mL hIFNα at 1000 IU/mL. Antagonist: 100 IU/mL.
In a 96-well plate (200 μL total volume) containing the appropriate cells (25,000-50,000 cells/well), 20 μL of the test article or of the positive control ligand was added to the wells. For the antagonist assay, the test article was incubated with the cells, at 37° C. with 5% CO2, for 30 minutes prior to the addition of the positive control ligand to the wells. After 20 hour incubation, activation of the IRF pathway was monitored using a luciferase detection assay. Luciferase activity was assayed in triplicate from the supernatant of the induced cells, and the relative luminescence units (RLUs) are detected by a Promega GloMax Luminometer.

[9] = target: T1, Human TLR7 (Homo sapiens, UniProt Q9NYK1); test: Human TLR antagonist screening: NF-κB activation in HEK293 cells, TLR7; assay type: cell-based; conditions: antagonist mode; test article 1 μM, +CL307 10 ng/ml; No Sample 13, Control- 1
T1 construct: expressed in transfected cells; host or cells: HEK293
T1 sequence (Q9NYK1 27-1049): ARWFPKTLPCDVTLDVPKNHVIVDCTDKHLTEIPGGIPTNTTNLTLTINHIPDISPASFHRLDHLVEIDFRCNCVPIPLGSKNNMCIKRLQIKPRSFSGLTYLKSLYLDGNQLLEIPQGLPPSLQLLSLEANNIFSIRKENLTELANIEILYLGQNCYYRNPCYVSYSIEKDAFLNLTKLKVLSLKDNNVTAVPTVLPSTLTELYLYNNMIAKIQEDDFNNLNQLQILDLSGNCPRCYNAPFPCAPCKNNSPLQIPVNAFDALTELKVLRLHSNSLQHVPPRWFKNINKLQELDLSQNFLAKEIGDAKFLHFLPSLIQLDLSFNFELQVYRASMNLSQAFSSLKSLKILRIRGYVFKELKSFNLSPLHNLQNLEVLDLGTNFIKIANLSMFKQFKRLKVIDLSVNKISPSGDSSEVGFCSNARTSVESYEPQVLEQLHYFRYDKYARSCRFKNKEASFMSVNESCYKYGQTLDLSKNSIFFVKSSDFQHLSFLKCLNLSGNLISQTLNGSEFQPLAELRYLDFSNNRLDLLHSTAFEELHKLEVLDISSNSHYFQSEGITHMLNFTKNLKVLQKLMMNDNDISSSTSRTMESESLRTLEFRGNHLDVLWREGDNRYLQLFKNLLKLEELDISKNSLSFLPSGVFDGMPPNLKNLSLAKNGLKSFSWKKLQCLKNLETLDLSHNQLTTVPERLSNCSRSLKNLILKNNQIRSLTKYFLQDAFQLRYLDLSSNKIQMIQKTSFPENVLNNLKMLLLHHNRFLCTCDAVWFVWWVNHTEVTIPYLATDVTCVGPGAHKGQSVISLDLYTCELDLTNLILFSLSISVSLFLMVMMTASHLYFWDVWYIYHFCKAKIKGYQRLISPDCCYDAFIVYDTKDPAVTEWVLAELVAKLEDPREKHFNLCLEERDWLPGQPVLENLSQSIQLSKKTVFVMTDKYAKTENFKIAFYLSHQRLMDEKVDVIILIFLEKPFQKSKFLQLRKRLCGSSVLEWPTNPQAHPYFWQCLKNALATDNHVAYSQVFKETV
Experimental: as §1, with “triplicate. […] CL307 at 1 μg/mL Antagonist: 10 ng/mL.” for “triplicate.”, “expression.” for “expression. After a 16-24 hr incubation the optical density (OD) was read at 650 nm on a Molecular Devices SpectraMax 340PC absorbance detector.”

[10] = intrauterine LPS with Amitriptyline or TAK242
[11] = intrauterine LPS (100 ug/kg) compared with saline

Row | Compound | effect on control cell line HEK293/Null1 [1] | LPS-induced activation of spinal microglia (Iba1 staining, dorsal horn) [2] | effect on control cell line HEK293/Null2 [3] | LPS-induced activation of spinal astrocytes (GFAP staining, dorsal horn) [4] | integrated density of GFAP staining (activated astrocytes within the dorsal horn) [4] | LPS-induced spinal glial activation [5] | Facial Grimace Score [7, 10] | other results
1 | CN(C)CCC=C1c2ccccc2CCc2ccccc21 [Amitriptyline] | slight inhibitory effect | blocked the impact of intrauterine LPS at multiple levels of the spinal cord and reduced microglial reactivity to basal levels; also recorded: appears to reduce microglial reactivity to basal levels | slight inhibitory effect | blocks the impact of intrauterine LPS at multiple levels of the spinal cord and appears to reduce astrocytic reactivity to below basal levels | significantly reduce LPS effect | showed additional activity reducing spinal glial activation above TAK-242 alone | reduced these scores | LPS-induced activation of spinal microglia (Iba1 staining, dorsal horn) ([2]; listed as amitriptyline): prevented LPS-induced activation of spinal astrocytes and microglia; LPS-induced activation of spinal astrocytes (GFAP staining, dorsal horn) ([4]; listed as amitriptyline): prevented LPS-induced activation of spinal astrocytes and microglia; also recorded: reduced spinal activation of astrocytes below baseline levels; also recorded: blocked the impact of intrauterine LPS at multiple levels of the spinal cord and reduced astrocytic reactivity to below basal levels; LPS-induced spinal glial activation ([5]; listed as amitriptyline): effect was prevented; clinical use [6]: has been used successfully to treat PMS and depression; proportion of mice displaying severe grimace ([7]; intrauterine LPS with amitriptyline vs LPS only, categorical assessment, p=0.043): significantly reduced severe grimace behaviour; effect on control cell line HEK293/Null [8]: inhibitory effect
2 | CNCCC=C1c2ccccc2CCc2ccccc21 [Nortriptyline] | slight inhibitory effect |  | slight inhibitory effect |  |  |  |  | Fold Induction [9]: slight potentiating effect
3 | CCOC(=O)C1=CCCC[C@H]1S(=O)(=O)Nc1ccc(F)cc1Cl [TAK-242] |  | prevented LPS-induced activation of spinal astrocytes and microglia; also recorded: reduced spinal activation of microglia below baseline levels |  | prevented LPS-induced activation of spinal astrocytes and microglia | significantly reduce LPS effect | effect was also prevented; also recorded: block spinal glial activation following intrauterine administration of LPS | reduced grimace scores non-significantly | LPS-induced activation of spinal microglia (Iba1 staining, dorsal horn) ([2]; listed as TAK242): blocked the impact of intrauterine LPS at multiple levels of the spinal cord and reduced microglia reactivity to basal levels; also recorded: appears to reduce microglia reactivity to basal levels; LPS-induced activation of spinal astrocytes (GFAP staining, dorsal horn) ([4]; listed as TAK242): blocked the impact of intrauterine LPS at multiple levels of the spinal cord and reduced astrocytic reactivity to below basal levels; also recorded: blocks the impact of intrauterine LPS at multiple levels of the spinal cord and appears to reduce astrocytic reactivity to below basal levels
4 | lipopolysaccharide [LPS] |  |  |  |  |  |  |  | activation of spinal microglia (Iba1 staining) [2, 11]: induced activation of spinal astrocytes and microglia; also recorded: localised increase in Iba1 microglial staining throughout select levels of the spinal cord; also recorded: induced activation of microglia with inconsistent effect across levels; activation of spinal astrocytes (GFAP staining) [4, 11]: induced activation of spinal astrocytes and microglia; also recorded: substantial increase in GFAP astrocyte staining throughout multiple levels of the spinal cord; also recorded: induced activation of astrocytes at multiple levels of the spinal levels compared with saline; activation of spinal glial cells ([5]; intra-uterine LPS): activate spinal glial cells, including astrocytes and microglia; Facial Grimace Score ([7]; intrauterine LPS vs saline): caused a significant increase in the presentation of Grimace behaviours in animals
